In patent US4994482A, “Arylpyrazol derivatives as anti-platelet agents, compositions and use” (Bristol-Myers Squibb Company, priority 1990, dated 1991):
Values after ≈ are worked out from the molar mass of the structure shown. Where two headings read alike, the source gives them in different places.

Assays:
[1] = system: human platelet-rich plasma (ADP-induced platelet aggregation); assay: In vitro inhibition of ADP-induced human platelet aggregation (Born aggregometer method); assay type: cell-based
Experimental: (§1) The aggregometer method of Born, C. […] The human volunteer donor's arm is cleansed with 70% ethyl alcohol. A sterile 20 ml syringe and needle are used to withdraw 20 ml of blood.
(§2) All glassware used for preparation of PRP is silicon treated. […] The various compounds tested were dissolved in dimethylsulfoxide (DMSO) so that 5 mcl added to the platelet rich plasma would yield the desired test concentration. Vehicle control trials were done and compared with aggregation induced in platelet rich plasma containing various concentrations of the test compounds. Dose response curves were obtained and Inhibitor Concentration IC50) values calculated.

[2] = system: human platelet-rich plasma (collagen-induced platelet aggregation); assay: In vitro inhibition of collagen-induced human platelet aggregation (Born aggregometer method); assay type: cell-based; conditions: human PRP, 0.05 mL of a collagen suspension
Experimental: as §1, §2

[3] = system: biolaser induced thrombosis (thrombus formation); assay: In vivo inhibition of biolaser induced thrombosis in rabbit ear chamber; set-up: species or system English lop-ear rabbits
Text: The laser induced thrombosis method is a modification of the technique developed by Sanders, A. G., et al. in Brit. J Exp. Pathol., 1954, 35, 331 and Grant, L., et al. in Proc. Soc. Exp. Biol. Med., 1965, 119, 1123. A detailed description of this method has been described by Fleming, J. S., et al., in Platelets and Thrombosis, A. Scriabine and S. Sherry, eds., Baltimore, Univ. Park Press, pp. 247-262, 1974 and is hereby incorporated by reference.
Briefly, Lucite ear chambers were chronically implanted in adult, English lop-ear rabbits. The animals were conditioned to lie quietly in the supine position. Localized microvascular injury was induced by focusing a single ruby laser beam through a microscope into the lumen of a vessel 10-60 μM in diameter. This evoked the formation of a small thrombus consisting of platelets accumulated around a core of one or two damaged red cells. Thrombus area was determined as a product of two perpendicular measurements made by using a micrometer eye piece. The mean thrombus area (μM^2) obtained for 10 trials in each rabbit served as a control value. The test compound was administered orally and post-dose trials were performed at selected times. Pharmacological activity was evaluated by comparing pre- and post-dose mean thrombus areas.

[4] = human PRP, ADP 0.5 mcg/mL, read-out: IC50 - Human PRP vs:ADP

`O=C(O)COCCCCCCn1nc(-c2ccccc2)c(-c2ccccc2)c1-c1ccccc1` [Example 4, [[6-(3,4,5-Triphenyl-lH-pyrazol-1-yl)hexyl]oxy]acetic acid] was tested, and the IC50 [1, 4] was 0.2 µg/mL (≈ 0.44 µM) and the IC50 [2] was 0.096 µg/mL (≈ 0.211 µM).
`O=C(O)CCCCCCCn1nc(-c2ccccc2)c(-c2ccccc2)c1-c1ccccc1` [Example 8, 3,4,5-Triphenyl-lH-pyrazol-1-octanoic acid hydrate] showed an IC50 [1, 4] of 1.9 µg/mL.
For `O=C(O)CCCC=CCCCn1nc(-c2ccccc2)c(-c2ccccc2)c1-c1ccccc1` [Example 10, (Z) and (E)-9-(3,4,5-Triphenyl-lH-pyrazol-1-yl)-5-nonenoic acid hydrate], the IC50 [1, 4] was 0.35 µg/mL and the IC50 [2] was 0.12 µg/mL.
In the case of `COC(=O)CCCCCCCCn1nc(-c2ccccc2)c(-c2ccccc2)c1-c1ccccc1` [Example 14, Methyl 3,4,5-triphenyl-lH-pyrazol-1-nonanoate], the IC50 [1, 4] is reported as 2 µg/mL (≈ 4.29 µM) and the IC50 [2] is reported as 0.27 µg/mL (≈ 0.579 µM).
With `O=C(O)CCCCCCCCn1nc(-c2ccccc2)c(-c2ccccc2)c1-c1ccccc1` [Example 15, 3,4,5-Triphenyl-lH-pyrazol-1-nonanoic acid hydrate] the IC50 [1, 4] was 0.16 µg/mL, the “inhibition of thrombus formation” value ([3]; oral 1 mg/kg) was “approximately 30%” and the “inhibition of thrombus formation” value ([3]; oral 10 mg/kg) was “over 60%”. For the same compound, the “inhibition of thrombus formation” value ([3]; oral 30 mg/kg) was “over 60%” and the IC50 [2] was 0.068 µg/mL.
Work on `O=C(O)CCCCCCCCn1cc(-c2ccccc2)c(-c2ccccc2)n1` [Example 17, 3,4-Diphenyl-lH-pyrazol-1-nonanoic acid hydrate] yielded an IC50 [1, 4] of 1.5 µg/mL.
Compound `O=C(O)CCCCCCCCn1ncc(-c2ccccc2)c1-c1ccccc1` [Example 18, 4,5-Diphenyl-lH-pyrazol-1-nonanoic acid] has an IC50 [1, 4] of 2.5 µg/mL (≈ 6.64 µM) and an IC50 [2] of 0.45 µg/mL (≈ 1.2 µM).
`O=C(O)CSCCCCCCn1nc(-c2ccccc2)c(-c2ccccc2)c1-c1ccccc1` [Example 21, [[6-(3,4,5-Triphenyl-lH-pyrazol-1-yl)hexyl]thio]acetic acid] was tested, and the IC50 [1, 4] was 0.41 µg/mL (≈ 0.871 µM) and the IC50 [2] was 0.15 µg/mL (≈ 0.319 µM).
In the case of `O=C(O)C[S+]([O-])CCCCCCn1nc(-c2ccccc2)c(-c2ccccc2)c1-c1ccccc1` (stereo not shown) [Example 25, [[6-(3,4,5-Triphenyl-lH-pyrazol-1-yl)hexyl]sulfinyl]acetic acid hydrate], the IC50 [1, 4] is reported as 3.2 µg/mL.
Compound `O=C(O)CSCCCCCn1nc(-c2ccccc2)c(-c2ccccc2)c1-c1ccccc1` [Example 27, [[5-(3,4,5-Triphenyl-lH-pyrazol-1-yl)pentyl]thio]acetic acid] has an IC50 [1, 4] of 1.9 µg/mL (≈ 4.16 µM) and an IC50 [2] of 0.16 µg/mL (≈ 0.35 µM).
In the case of `O=C(O)CCCCCCCCCn1nc(-c2ccccc2)c(-c2ccccc2)c1-c1ccccc1` [Example 36, 3,4,5-triphenyl-lH-pyrazole-1-decanoic acid hydrate], the IC50 [1, 4] is reported as 3.5 µg/mL.
`c1ccc(-c2nn(CCCCCCCCc3nn[nH]n3)c(-c3ccccc3)c2-c2ccccc2)cc1` [Example 40, 5-[8-(3,4,5-Triphenyl-lH-pyrazol-1-yl)octyl]-2 H-tetrazole] showed an IC50 [1, 4] of 0.5 µg/mL (≈ 1.05 µM) and an IC50 [2] of 0.052 µg/mL (≈ 0.109 µM).
`O=C(O)CCCCCCCn1ncc(-c2ccccc2)c1-c1ccccc1` [Example 44, 4,5-Diphenyl-lH-pyrazole-1-octanoic acid] showed an IC50 [1, 4] of 0.6 µg/mL (≈ 1.66 µM).
Compound `OCCN(CCO)c1nc(N2CCCCC2)c2nc(N(CCO)CCO)nc(N3CCCCC3)c2n1` [dipyridamole, reference compound] has an IC50 ([1]; Homo sapiens, read-out: IC50 vs. ADP) greater than 512 µg/mL.
